31 molecules from PMC8286840, “Identifying SARS-CoV-2 antiviral compounds by screening for small molecule inhibitors of Nsp3 papain-like protease” (Biochemical Journal, 2021) can be followed below.

Molecules are shown by their SMILES. Structures can show the parent of a compound that is named as a salt. Where two headings read alike, the source gives them in different places.

Assay [1] concerns the target T1, SARS-CoV-2 PLpro (nsp3 1564–1878) (Severe acute respiratory syndrome coronavirus 2, UniProt P0DTD1). In words: biochemical. More on the design: FRET-quenched peptide (Pro3) cleavage by PLpro, 10 min pre-incubation, slope over 20 min, normalised to no-compound control. The note with it: low concentration screen, read-out: % of control remaining.
The target in assay [2] is T1, SARS-CoV-2 PLpro (nsp3 1564–1878). The assay is described as follows: biochemical. More on the design: FRET-quenched peptide (Pro3) cleavage by PLpro, 10 min pre-incubation, slope over 20 min, normalised to no-compound control. Conditions: high concentration screen, read-out: % of control remaining.

In the case of `O=C(O)c1ccccn1` [PCL 016], in assay [1] (Well no.=7107), the remaining activity at 1.25 µM worked out at 99.9%. For the same molecule, in assay [2] (Well no.=7107), the remaining activity at 3.75 µM was determined as 98.2%.
On to `COc1cc2ncnc(Nc3cccc(Br)c3)c2cc1OC` [PD153035 HCl], for which the remaining activity at 1.25 µM in assay [1] (Well no.=4627) was 104%. In assay [2] (Well no.=4627), the remaining activity at 3.75 µM amounted to 105%.
Regarding `C=CC(=O)Nc1ccc2ncnc(Nc3cccc(Br)c3)c2c1` [PD168393], the remaining activity at 1.25 µM in assay [1] (Well no.=4750) stood at 105%. Further, the remaining activity at 3.75 µM in assay [2] (Well no.=4750) was determined as 104%.
Regarding `CCN(CC)CCCCNc1ncc2cc(-c3cc(OC)cc(OC)c3)c(NC(=O)NC(C)(C)C)nc2n1` [PD173074], the remaining activity at 1.25 µM in assay [1] (Well no.=4767) is 104%. In addition, the remaining activity at 3.75 µM in assay [2] (Well no.=4767) is 108%.
As to `Cn1c(=O)c(-c2c(Cl)cccc2Cl)cc2cnc(Nc3ccc(N4CCOCC4)cc3)nc21` [PD173952], the remaining activity at 1.25 µM in assay [1] (Well no.=5415) amounted to 103%. In addition, in assay [2] (Well no.=5415), the remaining activity at 3.75 µM came to 108%.
Consider `Cn1c(=O)c(-c2c(Cl)cccc2Cl)cc2cnc(Nc3cccc(C(=O)O)c3)nc21` [PD173955-Analog1], for which the remaining activity at 1.25 µM in assay [1] (Well no.=2849) amounted to 101%. Also, in assay [2] (Well no.=2849), the remaining activity at 3.75 µM was 99.7%.
Turning to `CSc1cccc(Nc2ncc3cc(-c4c(Cl)cccc4Cl)c(=O)n(C)c3n2)c1` [PD173955], the remaining activity at 1.25 µM in assay [1] (Well no.=2985) turned out to be 102%. Further, the remaining activity at 3.75 µM in assay [2] (Well no.=2985) came to 102%.
`COc1cccc(-c2cc(=O)c3ccccc3o2)c1N` [PD 98,059]: the remaining activity at 1.25 µM in assay [1] (Well no.=1457) turned out to be 94.9%. In assay [2] (Well no.=1457), the remaining activity at 3.75 µM amounted to 95.8%.
In the case of `Cc1cccc(C(=O)NCN2CCN(c3ccccc3C#N)CC2)c1` [PD 168,077 maleate], the remaining activity at 1.25 µM in assay [1] (Well no.=1171) was 106%. Besides, in assay [2] (Well no.=1171), the remaining activity at 3.75 µM is 107%.
For `N=C1Sc2ccccc2C2=NCCCN12` [PD 404,182], the remaining activity at 1.25 µM in assay [1] (Well no.=1096) was 98.8%. Also, in assay [2] (Well no.=1096), the remaining activity at 3.75 µM amounted to 101%.
In the case of `COc1cccc(-c2cc(=O)c3ccccc3o2)c1N` [PD 98059 - 2-(2-Amino-3-methoxyphenyl)-4H-1-benzopyran-4-one], the remaining activity at 1.25 µM in assay [1] (Well no.=2348) is 98.4%. Moreover, in assay [2] (Well no.=2348), the remaining activity at 3.75 µM came to 96.8%.
In the case of `COc1cccc(-c2cc(=O)c3ccccc3o2)c1N` [PD 98059], the remaining activity at 1.25 µM in assay [1] (Well no.=2600) was determined as 94.8%. The remaining activity at 3.75 µM in assay [2] (Well no.=2600) was 92%.
For `OC[C@H]1O[C@@H](n2cnc3c(N[C@@H]4CCc5ccccc54)ncnc32)[C@H](O)[C@@H]1O` [PD 117519], the remaining activity at 1.25 µM in assay [1] (Well no.=7763) came to 96.4%; in assay [1] (Well no.=8169), 106%. Moreover, the values for the remaining activity at 3.75 µM in assay [2] (Well no.=7763) and in assay [2] (Well no.=8169) were 102% and 110%, respectively.
As for `Cc1cc(Cn2cnc3c2C[C@@H](C(=O)O)N(C(=O)C(c2ccccc2)c2ccccc2)C3)ccc1N(C)C` [PD 123319 (ditrifluoroacetate)], the results for the remaining activity at 1.25 µM in assay [1] (Well no.=7145) and in assay [1] (Well no.=8406) were 97.1% and 94.2%, respectively. The remaining activity at 3.75 µM in assay [2] (Well no.=7145) was found to be 96.9%; in assay [2] (Well no.=8406) it was 92.3%.
`O=C(O)/C(S)=C/c1ccc(I)cc1` [PD 150606]: the remaining activity at 1.25 µM in assay [1] (Well no.=5432) was found to be 93.8%. In assay [2] (Well no.=5432), the remaining activity at 3.75 µM came out at 97.7%.
For the molecule `O=C(O)/C(S)=C/c1c[nH]c2ccc(F)cc12` [PD 151746], the remaining activity at 1.25 µM in assay [1] (Well no.=8812) turned out to be 92.8%. Moreover, the remaining activity at 3.75 µM in assay [2] (Well no.=8812) was 92.9%.
Regarding `CNc1cc2c(Nc3cccc(Br)c3)ncnc2cn1` [PD 158780], in assay [1] (Well no.=2499), the remaining activity at 1.25 µM was determined as 99.1%. Further, in assay [2] (Well no.=2499), the remaining activity at 3.75 µM was determined as 99.3%.
In the case of `CCC(=O)Nc1ccc2ncnc(Nc3cccc(Br)c3)c2c1` [PD 174265], the remaining activity at 1.25 µM in assay [1] (Well no.=2501) stood at 101%. In addition, the remaining activity at 3.75 µM in assay [2] (Well no.=2501) came out at 98.5%.
Regarding `Cc1cc(I)ccc1Nc1c(C(=O)NOCC2CC2)cc(F)c(F)c1F` [PD 198306 - N-(Cyclopropylmethoxy)-3,4,5-trifluoro-2-[(4-iodo-2-methylphenyl)amino]-benzamide], the remaining activity at 1.25 µM in assay [1] (Well no.=2582) amounted to 92.1%. Moreover, the remaining activity at 3.75 µM in assay [2] (Well no.=2582) came out at 87.7%.
In the case of `CC(=O)c1c(C)c2cnc(Nc3ccc(N4CCNCC4)cn3)nc2n(C2CCCC2)c1=O` [PD 0332991 (Palbociclib) HCl], the remaining activity at 1.25 µM in assay [1] (Well no.=4667) turned out to be 99%. Also, in assay [2] (Well no.=4667), the remaining activity at 3.75 µM stood at 98%.
On to `CC(=O)c1c(C)c2cnc(Nc3ccc(N4CCNCC4)cn3)nc2n(C2CCCC2)c1=O` [PD 0332991 (Palbociclib) Isethionate], for which, in assay [1] (Well no.=4882), the remaining activity at 1.25 µM came out at 101%. The remaining activity at 3.75 µM in assay [2] (Well no.=4882) came out at 101%.
In the case of `C[C@@H](O)[C@H](N)c1nnc([C@H](CCC(N)=O)NC(=O)N[C@@H](CO)C(=O)O)o1` [PD-1-IN-17], the remaining activity at 1.25 µM in assay [1] (Well no.=8741) was 102%. Further, in assay [2] (Well no.=8741), the remaining activity at 3.75 µM is 106%.
In the case of `COc1ccc(C2(O)OC(=O)C(c3ccc4c(c3)OCO4)=C2Cc2cc(OC)c(OC)c(OC)c2)cc1` (stereo not drawn) [PD-156707], the remaining activity at 1.25 µM in assay [1] (Well no.=5693) was 101%. Moreover, in assay [2] (Well no.=5693), the remaining activity at 3.75 µM was 104%.
In the case of `CCN(CC)CCCCNc1ncc2cc(-c3c(Cl)cccc3Cl)c(NC(=O)NC(C)(C)C)nc2n1` [PD-161570], the remaining activity at 1.25 µM in assay [1] (Well no.=5413) was 99.1%. Also, in assay [2] (Well no.=5413), the remaining activity at 3.75 µM was determined as 97.7%.
Consider `COc1cc(OC)cc(-c2cc3cnc(N)nc3nc2NC(=O)NC(C)(C)C)c1` [PD-166866], for which, in assay [1] (Well no.=5912), the remaining activity at 1.25 µM is 96.4%. Moreover, the remaining activity at 3.75 µM in assay [2] (Well no.=5912) stood at 96.7%.
With `Cc1cc(Nc2ncc3cc(-c4c(Cl)cccc4Cl)c(=O)n(C)c3n2)ccc1F` [PD-180970], the remaining activity at 1.25 µM in assay [1] (Well no.=5604) came to 100%. In assay [2] (Well no.=5604), the remaining activity at 3.75 µM stood at 96.4%.
Regarding `Cc1cc(Cn2c(=O)n(Cc3cnc(C)s3)c(=O)c3cc(S(=O)(=O)NC4(C)CC4)ccc32)n(C)n1` [PDD 00017273], in assay [1] (Well no.=8182), the remaining activity at 1.25 µM turned out to be 105%. In addition, the remaining activity at 3.75 µM in assay [2] (Well no.=8182) was determined as 98.5%.
Take `COc1cc2nccc(Oc3ccc(NC(=S)NC(=O)c4ccccc4C)cc3)c2cc1OC` [PDGF RTK Inhibitor]: the remaining activity at 1.25 µM in assay [1] (Well no.=2509) came out at 104%. For the same molecule, in assay [2] (Well no.=2509), the remaining activity at 3.75 µM turned out to be 101%.
As to `COc1cc2ncnc(N3CCN(C(=O)Nc4ccc(Oc5ccccc5)cc4)CC3)c2cc1OC` [PDGF Receptor Tyrosine Kinase Inhibitor III], the remaining activity at 1.25 µM in assay [1] (Well no.=2505) was 104%. In assay [2] (Well no.=2505), the remaining activity at 3.75 µM stood at 106%.
As to `CCCC(=O)Oc1ccc2[nH]c(C(=O)c3cc4ccccc4[nH]3)cc2c1` [PDGF Receptor Tyrosine Kinase Inhibitor II], the remaining activity at 1.25 µM in assay [1] (Well no.=2503) was 101%. The remaining activity at 3.75 µM in assay [2] (Well no.=2503) was found to be 99.2%.
With `CCN(CC)Cc1ccc(C(=O)N(CCc2ccccc2OC)[C@@H]2CCNC2)cc1` [PF429242 (dihydrochloride)], in assay [1] (Well no.=6996), the remaining activity at 1.25 µM amounted to 102%. Further, the remaining activity at 3.75 µM in assay [2] (Well no.=6996) was 97.5%.
